{"source": "patent US20070225363A1", "about": "“Methods and Agents for Inhibiting Dynamin-Dependent Endocytosis” (the University of Newcastle Research Associates Ltd., priority 2003, published 2007)", "key": {"[1]": {"tested_on": "dynamin II", "experiment": "[α-32P]-GTP binding assay, dynamin II", "method": "The [α-^32P]-GTP-binding assay was performed in the wells of a 96-well microtitre plate. Dynamin (0.2 μg/well) was added to GTPase buffer and incubated for 10 min at 4 C in the dark. [α-^32P]-GTP (2 μCi/tube) was then added to the reaction and incubated for a further 10 min at 4 C. in the dark. The microtitre plate was then irradiated with a short wavelength ultraviolet lamp at […] for 30 min at a distance of 8 cm. The specificity of photolabelling was determined by comparing the labelling in the presence and absence of 1 mM cold GTP. Samples were then applied to nitrocellulose membranes by aspiration through the wells of a 24 well slot blotter. The nitrocellulose was washed 3 times with PBS and dried. Bound nucleotide was detected by a phosphorimager (Molecular Dynamics)."}, "[2]": {"tested_on": "isolated nerve terminals (synaptosomes)", "experiment": "Synaptic vesicle endocytosis, FM2-10 uptake in synaptosomes", "assay_type": "cell-based, rat", "details": "100 μM, synaptosomes", "method": "Isolated nerve terminals (synaptosomes) were prepared from rat cerebral cortex by centrifugation on discontinuous percoll gradients (Dunkley et al., 1986). Fractions 3 and 4 were pooled and used in all experiments. Endocytosis was measured using uptake of the fluorescent dye FM2-10 as previously described (Cousin and Robinson 2000a). Synaptosomes (0.6 mg in 2 ml) were incubated for 5 min at 37° C. in plus or minus Ca^2+ Krebs-like solution. FM2-10 ([…]) was added 1 min before stimulation with 30 mM KCl (S1). As FM2-10 is taken up by vesicles via endocytosis at the S1 phase of stimulation, synaptosomes were incubated with antagonists during this phase. […] After 2 min of stimulation synaptosomes were washed twice in plus Ca^2+ solution containing 1 mg/ml bovine serum albumin. The washing steps remove non-internalised FM2-10 and the tyrphostins. Washed synaptosomes were resuspended in plus Ca^2+ solution at 37° C., transferred to a fluorimeter cuvette and stimulated with a standard addition of 30 mM KCl (S2). The standard S2 stimulation releases all accumulated FM2-10 and allows endocytosis to be measured as the decrease in FM2-10 fluorescence due to dye release into solution (excitation 488 nm, emission 540 nm).\nEndocytosis was calculated as the decrease in absolute fluorescence stimulated by 30 mM KCl at S2. […] Retrieval efficiency is a more accurate measure of endocytosis since it takes into account the amount of prior exocytosis. Retrieval efficiency was calculated as endocytosis/exocytosis, where endocytosis is defined as above and exocytosis as Ca^2+-dependent glutamate release after 2 min of stimulation. The retrieval efficiency value was normalised to a ratio of 1.0 for 30 mM KCl."}, "[3]": {"target": "dynamin I (Ovis aries, UniProt A0ACI6NZN1)", "sequence (A0ACI6NZN1 entry or part of it)": "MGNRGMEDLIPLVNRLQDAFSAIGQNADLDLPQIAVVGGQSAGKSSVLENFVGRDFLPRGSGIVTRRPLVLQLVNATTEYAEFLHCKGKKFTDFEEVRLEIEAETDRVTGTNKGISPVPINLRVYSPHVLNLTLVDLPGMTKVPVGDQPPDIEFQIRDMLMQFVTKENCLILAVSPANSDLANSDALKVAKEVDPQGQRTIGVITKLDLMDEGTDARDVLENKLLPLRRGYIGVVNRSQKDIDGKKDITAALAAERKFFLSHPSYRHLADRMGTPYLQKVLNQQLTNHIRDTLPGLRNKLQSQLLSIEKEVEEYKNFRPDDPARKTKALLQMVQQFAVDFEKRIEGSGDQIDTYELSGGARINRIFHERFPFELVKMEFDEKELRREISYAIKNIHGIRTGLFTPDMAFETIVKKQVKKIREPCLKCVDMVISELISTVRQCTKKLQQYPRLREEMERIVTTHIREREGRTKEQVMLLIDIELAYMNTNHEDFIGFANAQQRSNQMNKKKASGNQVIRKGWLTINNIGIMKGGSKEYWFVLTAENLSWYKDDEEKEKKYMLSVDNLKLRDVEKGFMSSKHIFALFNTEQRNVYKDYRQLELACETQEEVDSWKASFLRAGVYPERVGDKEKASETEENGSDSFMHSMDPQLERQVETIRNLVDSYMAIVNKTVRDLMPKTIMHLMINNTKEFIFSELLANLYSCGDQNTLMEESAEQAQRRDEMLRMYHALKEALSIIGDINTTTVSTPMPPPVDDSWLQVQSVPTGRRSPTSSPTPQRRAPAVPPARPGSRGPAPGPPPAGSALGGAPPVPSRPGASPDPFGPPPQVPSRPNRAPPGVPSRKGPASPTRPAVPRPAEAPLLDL", "experiment": "Phospholipid binding and helix assembly (sedimentation assay)", "details": "10 or 100 μM, PS liposomes"}, "[4]": {"tested_on": "Swiss 3T3 cells", "experiment": "Texas Red-transferrin uptake in Swiss 3T3 cells", "assay_type": "cell-based", "details": "drug added 15 or 60 minutes before Tf-TxR", "method": "Transferrin (Tf) uptake was analysed in Swiss 3T3 and HER14 cells based on methods previously described (van der Bliek et al., 1993). Briefly, cells were plated to 60% confluency in DMEM medium plus 10% foetal calf serum after which the cells were incubated overnight (8-10 hours) in DMEM minus foetal calf serum. Texas red-transferrin (Tf-TxR, Molecular Probes, Oregon) was added to a final concentration of 5 μg/ml and the cells incubated at 37° C. for 10 minutes. Cell surface staining was removed by incubating the cells in an ice cold acid wash solution (0.2 M acetic acid +0.5 M NaCl, pH 2.8) for 15 minutes. Cells were immediately fixed with 4% paraformaldehyde for 10 minutes then washed 3 times with PBS. Nuclei were stained using DAPI (Molecular Probes, Oregon). Slides were mounted using DABCO and the fluorescence was monitored using a Leica DMLB bright field microscope and SPOT digital camera."}, "[5]": {"target": "T1, Rab3A (Homo sapiens, UniProt P20336)", "T1 sequence (P20336 1-220)": "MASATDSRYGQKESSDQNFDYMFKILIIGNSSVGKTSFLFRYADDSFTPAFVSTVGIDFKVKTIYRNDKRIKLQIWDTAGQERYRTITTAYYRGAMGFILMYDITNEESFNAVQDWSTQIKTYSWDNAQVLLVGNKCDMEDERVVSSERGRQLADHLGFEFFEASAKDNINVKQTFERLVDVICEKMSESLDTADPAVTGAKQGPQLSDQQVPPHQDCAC", "experiment": "[α-32P]-GTP binding to small G protein Rab3A", "details": "data not shown", "method": "Competition of these drugs with GTP for the active site of 4 small G proteins (Rab3A, Ras, Arf2, RalA) was also tested."}}, "note": "“Also recorded” adds a separate entry of the source."}
{"smiles": "N#C/C(=C\\c1ccc(O)c(O)c1)C(=O)NCCCNC(=O)/C(C#N)=C/c1ccc(O)c(O)c1", "note": "[bis-tyrphostin]", "values": [{"measurement": "[α-32P]-GTP binding to dynamin II in the presence of drug", "setting": "[1]", "value": "not seen to decrease; also recorded: not affected"}, {"measurement": "inhibition of synaptic vesicle endocytosis (SVE)", "setting": "[2]", "value": "specifically decreases endocytosis"}, {"measurement": "inhibition of synaptic vesicle endocytosis (SVE)", "setting": "[2]; listed as Bis-tyrphostin", "value": "significantly inhibited"}, {"measurement": "phospholipid binding and dynamin helix assembly", "setting": "[3]", "value": "completely unaffected; also recorded: does not block dynamin binding to lipid"}, {"measurement": "internalisation of texas-red labelled transferrin into Swiss 3T3 cells", "setting": "[4]", "value": "very large decrease in transferrin staining; also recorded: inhibited"}, {"measurement": "effect on [α-32P]-GTP binding to Rab3A", "setting": "[5]", "value": "neither drug affected"}]}
